Test results as given in the supplement of paper PMC6045584.
± gives the standard deviation of the averaged measurements.

Columns and labels:
[1] = compound: T1, Nc1nc2[nH]cnc2c(=S)[nH]1 [TIOGUANINE]; assay: surviving fraction relative to DMSO-only wells; higher = less growth inhibition; details: exposure time: 5 days
Outline: (§1)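 Tumour cell lines were grown to log phase and seeded at 250–500 cells per well in 384-well plates. They were exposed continuously to inhibitors at 0.5, 1, 5, 10, 50, 100, 500 and 1000 nM for five days, beginning 24 hours after seeding. Surviving fraction is CellTiter-Glo luminescence normalised to the median of DMSO-only wells.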

[2] = compound: T2, CNC(=O)c1ccc(N2C(=S)N(c3ccc(C#N)c(C(F)(F)F)c3)C(=O)C2(C)C)cc1F [MDV3100]; assay: as above; details: exposure time: 5 days
Outline: as §1

[3] = compound: Cn1cc(C2=Nc3cc(NC(=O)C(N)C4CCCCC4)cc4c3C2=CNNC4=O)cn1; assay: as above; details: exposure time: 5 days
Outline: as §1

[4] = compound: T3, CC1(C)CC(=O)c2c(C(F)(F)F)nn(-c3ccc(C(N)=O)c(N[C@H]4CC[C@H](OC(=O)CN)CC4)c3)c2C1 [SNX-5422]; assay: as above; details: exposure time: 5 days
Outline: as §1

[5] = compound: T4, CC[C@@H]1C(=O)N(C)c2cnc(Nc3ccc(C(=O)NC4CCN(C)CC4)cc3OC)nc2N1C1CCCC1 [BI-2536]; assay: as above; details: exposure time: 5 days
Outline: as §1

[6] = compound: T5, CN(C)C/C=C/C(=O)Nc1cc2c(Nc3ccc(F)c(Cl)c3)ncnc2cc1O[C@H]1CCOC1 [AFATINIB]; assay: as above; details: exposure time: 5 days
Outline: as §1

[7] = compound: C=CC(=O)Nc1cc2c(Nc3ccc(F)c(Cl)c3)ncnc2cc1OCCCN1CCOCC1 [CANERTINIB]; assay: as above; details: exposure time: 5 days
Outline: as §1

[8] = compound: T6, CCCCCCCCCCCCCCCC(=O)Nc1ccn([C@@H]2O[C@H](CO)[C@@H](O)[C@@H]2C#N)c(=O)n1 [SAPACITABINE]; assay: as above; details: exposure time: 5 days
Outline: as §1

[9] = compound: T1, TIOGUANINE; assay: area under dose-response curve of surviving fraction (unscaled, Aref=0) (surviving fraction x log10(nM)); higher = more resistant; details: exposure time: 5 days; dose range 0.5-1000 nM
Outline: (§2)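 Surviving fractions were fitted by 3-parameter logistic regression in the drc R package to give dose-response survival curves. They came from tumour cell lines treated for five days with eight inhibitor concentrations from 0.5 to 1000 nM and read by CellTiter-Glo luminescence against DMSO-only wells. The area under the curve is the unscaled activity area. It was calculated over log10 dose with Aref = 0.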

[10] = compound: T2, MDV3100; assay: as above; details: exposure time: 5 days; dose range 0.5-1000 nM
Outline: as §2

[11] = compound: Cn1cc(C2=Nc3cc(NC(=O)C(N)C4CCCCC4)cc4c3C2=CNNC4=O)cn1; assay: as above; details: exposure time: 5 days; dose range 0.5-1000 nM
Outline: as §2

[12] = compound: T3, SNX-5422; assay: as above; details: exposure time: 5 days; dose range 0.5-1000 nM
Outline: as §2

[13] = compound: T4, BI-2536; assay: as above; details: exposure time: 5 days; dose range 0.5-1000 nM
Outline: as §2

[14] = compound: T5, AFATINIB; assay: as above; details: exposure time: 5 days; dose range 0.5-1000 nM
Outline: as §2

[15] = compound: T6, SAPACITABINE; assay: as above; details: exposure time: 5 days; dose range 0.5-1000 nM
Outline: as §2

SJSA1 BONE
surviving fraction ([1]; 0.5 nM): 1.05 ± 0.038
surviving fraction ([1]; 1 nM): 1.05 ± 0.092
surviving fraction ([1]; 5 nM): 1.033 ± 0.0062
surviving fraction ([1]; 10 nM): 1.01 ± 0.035
surviving fraction ([1]; 50 nM): 1.1 ± 0.041
surviving fraction ([1]; 100 nM): 1.08 ± 0.036
surviving fraction ([1]; 500 nM): 1.016 ± 0.0081
surviving fraction ([1]; 1000 nM): 0.912 ± 0.019
surviving fraction ([2]; 0.5 nM): 0.471 ± 0.053
surviving fraction ([2]; 1 nM): 1.27 ± 0.084
surviving fraction ([2]; 5 nM): 1.43 ± 0.11
surviving fraction ([2]; 10 nM): 0.332 ± 0.037
surviving fraction ([2]; 50 nM): 0.0403 ± 0.0031
surviving fraction ([2]; 100 nM): 1.49 ± 0.034
surviving fraction ([2]; 500 nM): 0.0293 ± 0.0025
surviving fraction ([2]; 1000 nM): 1.49 ± 0.023
surviving fraction ([3]; 0.5 nM): 1.023 ± 0.0096
surviving fraction ([3]; 1 nM): 0.984 ± 0.02
surviving fraction ([3]; 5 nM): 1.01 ± 0.061
surviving fraction ([3]; 10 nM): 1.06 ± 0.036
surviving fraction ([3]; 50 nM): 1.03 ± 0.021
surviving fraction ([3]; 100 nM): 1.006 ± 0.0057
surviving fraction ([3]; 500 nM): 0.526 ± 0.044
surviving fraction ([3]; 1000 nM): 0.337 ± 0.018
surviving fraction ([4]; 0.5 nM): 1.06 ± 0.041
surviving fraction ([4]; 1 nM): 1.02 ± 0.051
surviving fraction ([4]; 5 nM): 1.12 ± 0.088
surviving fraction ([4]; 10 nM): 1.14 ± 0.034
surviving fraction ([4]; 50 nM): 0.484 ± 0.03
surviving fraction ([4]; 100 nM): 0.177 ± 0.0095
surviving fraction ([4]; 500 nM): 0.0583 ± 0.0035
surviving fraction ([4]; 1000 nM): 0.0523 ± 0.0015
surviving fraction ([5]; 0.5 nM): 1.01 ± 0.067
surviving fraction ([5]; 1 nM): 1.02 ± 0.068
surviving fraction ([5]; 5 nM): 0.882 ± 0.011
surviving fraction ([5]; 10 nM): 0.252 ± 0.033
surviving fraction ([5]; 50 nM): 0.174 ± 0.01
surviving fraction ([5]; 100 nM): 0.191 ± 0.0061
surviving fraction ([5]; 500 nM): 0.267 ± 0.02
surviving fraction ([5]; 1000 nM): 0.236 ± 0.015
surviving fraction ([6]; 0.5 nM): 1.05 ± 0.014
surviving fraction ([6]; 1 nM): 0.9563 ± 0.0055
surviving fraction ([6]; 5 nM): 1.11 ± 0.017
surviving fraction ([6]; 10 nM): 1.04 ± 0.05
surviving fraction ([6]; 50 nM): 1.15 ± 0.063
surviving fraction ([6]; 100 nM): 1.07 ± 0.023
surviving fraction ([6]; 500 nM): 0.995 ± 0.041
surviving fraction ([6]; 1000 nM): 0.613 ± 0.033
surviving fraction ([7]; 0.5 nM): 1.23 ± 0.12
surviving fraction ([7]; 1 nM): 1.2 ± 0.07
surviving fraction ([7]; 5 nM): 1.08 ± 0.15
surviving fraction ([7]; 10 nM): 1.31 ± 0.055
surviving fraction ([7]; 50 nM): 0.0523 ± 0.0021
surviving fraction ([7]; 100 nM): 1.64 ± 0.052
surviving fraction ([7]; 500 nM): 1.66 ± 0.053
surviving fraction ([7]; 1000 nM): 1.74 ± 0.12
surviving fraction ([8]; 0.5 nM): 1.24 ± 0.072
surviving fraction ([8]; 1 nM): 1.18 ± 0.095
surviving fraction ([8]; 5 nM): 1.19 ± 0.25
surviving fraction ([8]; 10 nM): 1.21 ± 0.066
surviving fraction ([8]; 50 nM): 1.65 ± 0.058
surviving fraction ([8]; 100 nM): 1.74 ± 0.087
surviving fraction ([8]; 500 nM): 1.65 ± 0.1
surviving fraction ([8]; 1000 nM): 1.75 ± 0.11
area under dose-response curve [9]: 3.46
area under dose-response curve [10]: 2.71
area under dose-response curve [11]: 3.02
area under dose-response curve [12]: 2.07
area under dose-response curve [13]: 1.58
area under dose-response curve [14]: 3.26
area under dose-response curve [15]: 4.77
